Values of other authors in patent US20050255049A1, “Formoterol and mometasone aerosol formulations” (priority 2002, published 2005).

Details: stated in the background

- density: 1.4 g cm^−3
Structure (SMILES): C[C@@H]1C[C@H]2[C@@H]3CCC4=CC(=O)C=C[C@]4(C)[C@@]3(Cl)[C@@H](O)C[C@]2(C)[C@@]1(OC(=O)c1ccco1)C(=O)CCl [mometasone furoate, (11 beta, 16alpha)-9,21-dichloro-17-[(2-furanylcarbonyl)oxy]-11-hydroxy-16-methylpregna-1,4-diene-3,20-dione]
